Values belong to the compound of their own block, whether it stands above or below them.
How the values were obtained:
physchem [1] = conditions: aqueous medium with DMSO
physchem [2] = conditions: buffer
[3] = 0.25 h

Compound: COc1cccc2c1nc(C(F)F)n2-c1nc(N2CCOCC2)nc(N2CCN(S(=O)(=O)CCN(C)C)CC2)n1.Cl
solubility at 0.25 h (physchem [1]): 0.024 mg/mL

Compound: COc1cccc2c1nc(C(F)F)n2-c1nc(N2CCOCC2)nc(N2CCN(S(=O)(=O)CCN(C)C)CC2)n1.CS(=O)(=O)O
solubility (physchem [2]): > 0.059 mg/mL

solubility [3]: Insoluble
Compound: COc1cccc2c1nc(C(F)F)n2-c1nc(N2CCOCC2)nc(N2CCN(S(C)(=O)=O)CC2)n1

From ChEMBL document CHEMBL4480443, “Synthesis and biological evaluation of solubilized sulfonamide analogues of the phosphatidylinositol 3-kinase inhibitor ZSTK474” (Bioorg Med Chem, 2019)
